This note sets out measurements from ChEMBL document CHEMBL3596102, “Anti-bacterial glycosyl triazoles - Identification of an N-acetylglucosamine derivative with bacteriostatic activity against Bacillus” (2014).

≈ marks a conversion by molar mass, not a printed value. Calls of active or inactive are those of the source.

For assay [1], the system named is Bacillus cereus. As to the kind of experiment: Antibacterial activity against Bacillus cereus assessed as inhibition of bacterial growth after 4 hrs by resazurin microtiter assay. Type of assay: functional. Background: Alamar Blue is a resazurin reagent that responds to reducing activity.
Assay [2] concerns Bacillus cereus. The assay is described as follows: Bacteriostatic activity against Bacillus cereus assessed as colony count at MIC after 4 hrs by resazurin microtiter assay (reference value: 2.67 +/-1.53x10^8 CFU/ml). Type of assay: functional.
The subject of assay [3] is Bacillus subtilis. The assay is described as follows: Induction of disrupted cell division in Bacillus subtilis ATCC 11775 assessed as phenotype with highly elongated cells and the appearance of chains of cells at 0.8xMIC after 2.5 hrs by phase contrast microscopy. Format: functional, organism-based.
Assay [4] has as its system Bacillus subtilis. The assay is described as follows: Inhibition of GlcNAcase in Bacillus subtilis ATCC 11775 assessed as inhibition of nitrophenol release using beta-p-nitrophenyl GlcNAc as substrate after 16 hrs by Spectromax 190 microtitre plate reader.
In assay [5] the test system is Bacillus subtilis. The assay is described as follows: Bacteriostatic activity against Bacillus subtilis ATCC 11775 assessed as colony count at MIC after 4 hrs by resazurin microtiter assay (reference value: 9.40 +/-2.88x10^7 CFU/ml). Format: functional.
The subject of assay [6] is Bacillus subtilis. The assay is described as follows: Antibacterial activity against Bacillus subtilis ATCC 11775 assessed as inhibition of bacterial growth after 4 hrs by resazurin microtiter assay. Type of assay: functional. Conditions: ATCC 11775, 4 h.
In assay [7] the test system is Bacillus subtilis. The assay is described as follows: Inhibition of GlcNAcase in Bacillus subtilis ATCC 11775 assessed as inhibition of nitrophenol release using beta-p-nitrophenyl GlcNAc as substrate at 250 uM after 16 hrs by Spectromax 190 microtitre plate reader.

Regarding `COc1ccc(C(C(=O)NCc2ccccc2)N(Cc2ccccc2)C(=O)c2cn([C@@H]3O[C@H](CO)[C@@H](O)[C@H](O)[C@H]3NC(C)=O)nn2)cc1` (some centres not stated), in the assay with Bacillus cereus [1], the MIC came out at 60 µM (≈ 39.5 µg/mL). Also, the Activity with Bacillus cereus [2] came to 7 ×10⁸ CFU/ml.
For the compound `CCCCNC(=O)C(C1CCCCC1)N(Cc1cn([C@@H]2O[C@H](CO)[C@@H](O)[C@H](O)[C@H]2NC(C)=O)nn1)C(=O)c1ccccc1I` (some centres not stated), the result in the assay on Bacillus subtilis [3] was Active. Further, in the assay on Bacillus subtilis [4], the inhibition result is “Dose-dependent effect”. For the same compound, the Activity in the assay with Bacillus subtilis [5] came out at 8.5 ×10⁷ CFU/ml. For the same compound, the MIC with Bacillus subtilis [6] worked out at 63 µM (≈ 45.8 µg/mL). The inhibition result in the assay on Bacillus subtilis [7] was “Active”.

A word on the MIC: it is the smallest concentration in the dilution series that meets the test's criterion for growth inhibition.
